Test results: the NIST ThermoML archive (doi:10.1021/je300111m)
Values joined by “and” are separate entries in the source; they are usually repeats but may differ in a detail not shown here. Equal entries are not always repeated. ± gives the expanded uncertainty stated by the source.

Conditions: Liquid

Row | vapor or sublimation pressure (243.23 K) | vapor or sublimation pressure (243.03 K) [kPa] | vapor or sublimation pressure (293.38 K) [kPa] | Compound | vapor or sublimation pressure (222.83 K) [kPa] | vapor or sublimation pressure (243.02 K) [kPa] | vapor or sublimation pressure (243.18 K) [kPa] | vapor or sublimation pressure (243.2 K) [kPa] | vapor or sublimation pressure (273.12 K) [kPa] | vapor or sublimation pressure (273.13 K) [kPa] | vapor or sublimation pressure (293.43 K) [kPa]
1 |  |  |  | S [hydrogen sulfide] | 167.3 ± 2.8 | 384 ± 6.2 | 380.2 ± 6.2 | 379.4 ± 6.2 | 1030.2 ± 17 | 1029.3 ± 17 | 1793.7 ± 29
2 | 168 ± 2.8 kPa and 168.2 ± 2.8 kPa |  |  | CCC [propane] |  |  |  |  | 473.5 ± 7.7 |  | 
3 |  | 29.1 ± 0.5 | 210.8 ± 3.5 | CCCC [butane] |  |  |  |  |  |  | 
